How the values were obtained:
Assay type in all cases: biochemical
G6sec2 [1] = biological target: T1, G6sec2 (Homo sapiens, UniProt Q9BYG0); assay: β1,3-N-acetylglucosaminyltransferase activity using unlabeled oligosaccharides as substrates (HPAE/PAD); conditions: unlabeled oligosaccharide 10 mmol/l, 37° C., 16 hours
T1 construct: made in house; host or cells: Sf21 insect cells infected with pVL1393-F2G6sec2-derived recombinant baculovirus
T1 sequence (Q9BYG0 39-378): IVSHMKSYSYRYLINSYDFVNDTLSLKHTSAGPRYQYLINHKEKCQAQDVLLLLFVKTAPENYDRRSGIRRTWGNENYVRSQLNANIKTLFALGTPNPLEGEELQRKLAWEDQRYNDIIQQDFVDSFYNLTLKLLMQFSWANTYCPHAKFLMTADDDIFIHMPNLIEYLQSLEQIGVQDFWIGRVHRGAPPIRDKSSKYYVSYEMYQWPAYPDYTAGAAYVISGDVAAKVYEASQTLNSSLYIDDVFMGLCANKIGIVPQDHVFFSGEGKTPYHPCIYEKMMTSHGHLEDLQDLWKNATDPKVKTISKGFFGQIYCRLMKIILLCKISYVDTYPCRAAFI
Procedure: The glycosyltransferase reaction was carried out as follows. The reaction was carried out at 37° C. for 16 hours in 40 μl of an assay solution [50 mmol/l MOPS (pH 7.5), 5 mmol/l UDP-GlcNAc (manufactured by SIGMA), 5 mmol/l MnCl2, 10 mmol/l sugar chain substrate, a purified enzyme solution (G6sec2)]. Next, the mixture was treated at 100° C. for 5 minutes and then centrifuged at 10,000×g for 20 minutes to obtain a supernatant, and a part thereof was analyzed using HPAE/PAD ([…]; manufactured by DIONEX). The method was specifically carried out according to a conventional method [Anal. Biochem., 189, 151-162 (1990), J. Biol. Chem., 273, 433-440 (1998)].
As a purified enzyme (G6sec2), […] of the enzyme obtained in the above (2) was used. As substrates, unlabeled oligosaccharides [lactose (Galβ1-4Glc) and LNnT] were used.
After the reaction on each substrate using an assay solution containing UDP-GlcNAc (saccharide donor) and an assay solution containing no donor, analysis was carried out using HPAE/PAD and peaks appeared only in the assay solution containing UDP-GlcNAc were defined as products. The product was identified using coincidence of its elution time with that of standard sugar chain as the index. As standard sugar chains, GlcNAcβ1-3Galβ1,4Glc and GlcNAcβ1-3Galβ1,4GlcNAcβ1-3Galβ1-4Glc were used.

G6sec2 [2] = biological target: T1, G6sec2; assay: β1,3-N-acetylglucosaminyltransferase activity using pyridylaminated oligosaccharides as substrates; conditions: 37° C., 14.5 hours
Procedure: After carrying out the reaction at 37° C. for 14.5 hours in 30 μl of an assay solution [150 mmol/l sodium cacodylate (pH 7.2), 50 mmol/l UDP-GlcNAc (manufactured by SIGMA), 0.4% Triton CF-54, 10 mmol/l MnCl2, 50 μmol/l pyridylaminated sugar chain substrate, a purified enzyme solution (G6sec2)], the product was detected by HPLC. The purified enzyme (G6sec2) was obtained according to the method shown in Example 8(6). The purified enzyme (280 μl) was prepared from 30 ml of a culture supernatant of Sf21 infected with the recombinant virus derived from pVL1393-F2G6sec2, and the assay was carried out using 5 μl thereof. As substrates, LnNT, lacto-N-tetraose (Galβ1-3GlcNAcβ1-3Galβ1-4Glc (hereinafter referred to as “LNT”), lacto-N-fucopentaose II (Galβ1-3(Fucα1-4)GlcNAcβ1-3Galβ1-4Glc; hereinafter referred to as “LNFP-II”), lacto-N-fucopentaose III (Galβ1-4(Fucα1-3)GlcNAcβ1-3Galβ1-4Glc; hereinafter referred to as “LNFP-III”), lacto-N-fucopentaose V (Galβ1-3GlcNAcβ1-3Galβ1-4(Fucα1-3)Glc; hereinafter referred to as “LNFP-V”), and lacto-N-difucohexaose II (Galβ1-3(Fucα1-4)GlcNAcβ1-3Galβ1-4(Fucα1-3)Glc; hereinafter referred to as “LNDFH-II”) (all manufactured by Oxford Glycosystems) were fluorescently-labeled with aminopyridine and used. The substrates were fluorescently-labeled according to a conventional method [Agric. Biol. Chem., 54, 2169 (1990)].
After carrying out the reaction on each substrate using an assay solution containing UDP-GlcNAc (saccharide donor) and an assay solution containing no donor and subsequently analyzing by HPLC, peaks appeared only in the assay solution containing UDP-GlcNAc was defined as products.
The assay solution after completion of the reaction was treated at 100° C. for 5 minutes and then centrifuged at 10,000×g for 5 minutes to obtain a supernatant, and a part thereof (5 μl) was subjected to HPLC.
The HPLC was carried out using TSK-gel ODS-80Ts Column (4.6×300 mm; manufactured by TOSOH) and 0.02 mol/l ammonium acetate buffer (pH 4.0) as the eluant at an elution temperature of 50° C. and a flow rate of 0.5 ml/min.
Detection and determination of products were carried out using a fluorescence spectrophotometer FP-920 (manufactured by JASCO Corporation) (excitation wavelength: 320 nm, radiation wavelength: 400 nm).

G6sec2 [3] = biological target: T1, G6sec2; assay: β1,3-N-acetylglucosaminyltransferase activity of purified FLAG peptide-fused G6 polypeptide, 2-aminobenzamide-labeled oligosaccharide substrates; conditions: second enzyme-adsorbed ANTI-FLAG M1 AFFINITY GEL (printed G6sec1-adsorbed gel) used as enzyme

conversion efficiency into the product (G6sec2 [1]): 0.48%
Relative activity (%) (G6sec2 [2]; pyridylaminated oligosaccharides 50 μmol/l, LNnT defined as 100%): 100%
conversion efficiency of the substrate into the product (G6sec2 [2]; pyridylaminated substrate 50 μmol/l): 12.8%
conversion efficiency of the substrate (G6sec2 [3]): 20.2%
SMILES: CC(=O)N[C@H]1[C@H](O[C@H]2[C@@H](O)[C@@H](CO)O[C@@H](O[C@H]3[C@H](O)[C@@H](O)C(O)O[C@@H]3CO)[C@@H]2O)O[C@H](CO)[C@@H](O[C@@H]2O[C@H](CO)[C@H](O)[C@H](O)[C@H]2O)[C@@H]1O (mixture of isomers) [LNnT, lacto-N-neotetraose]

Source: patent US7629150B2, “Transformed cell harboring DNA or RNA encoding sugar chain synthesizing agent having β1,3-N-acetylglucosaminyltransferase activity” (Kyowa Hakko Kirin Co., Ltd., priority 2000, dated 2009)
